Experiments:
OK cells = assay: GTTR uptake, saturability, time and temperature in OK cells; format: cell-based, opossum
Protocol: (§1) Both OK and MDCK cells were used in these studies. Both cell lines were treated with GTTR at 1 μg/ml in complete culture medium for two hours at either 37° C. or over ice. These cells were also treated with a dose range of 0 to 4000 μg/ml of unlabeled GT. Cells were washed and imaged live, then fixed with FATX, and washed again with buffer prior to re-imaging (as in FIG. 6, A3). […] Thus, cytoplasmic, but not endosomal, uptake of GTTR was saturable.
(§2) GTTR treatment: Subconfluent MDCK or OK cells were treated with 1 μg/mL of GTTR, in complete medium, for 2 hours at 37° C. or on ice. (The amount of GTTR is expressed as the weight of the gentamicin moiety within the conjugate.) In competition experiments, MDCK cells were simultaneously treated with unlabeled gentamicin (up to 4 mg/mL) for 2 hours.
(§3) Fixation, delipidation, and washing: After treatment, cells were washed three times with complete medium, and then immediately imaged live (see below; FIG. 27A), or fixed. […] Alternatively, cells were fixed in 4% formaldehyde alone (FA), washed and imaged (FIG. 27C), prior to delipidated with 0.5% Triton X-100 in PBS, washed thoroughly, and imaged again (FIG. 27D). Control cells were incubated with hydrolyzed TR (at the same concentration as the TR moiety in the GTTR experiments) and then imaged live, or fixed, delipidated, washed and then imaged.
Both OK and MDCK cells were treated with GTTR at 1 μg/mL in complete culture medium for 2 hours at either 37° C. or over ice. These cells were also treated with a dose range of 0 to 4000 μg/mL of unlabeled GT. Cells were washed and imaged live (as in FIG. 27A), then fixed with FATX, and washed again with PBS prior to re-imaging (as in FIG. 27B). […]
OK cells were treated with 1 μg/mL of GTTR in complete culture medium, at 37° C. or on ice, for increasing time periods. […] (Note that live images were acquired without washing out GTTR from the extracellular medium, so fluorescence is visible outside the cells.) No endosomes were observed on OK cells treated on ice for 2 hours (FIG. 28, B1 inset). […]

MDCK kidney cell line = assay: Fluorescent microplate assay quantifying GTTR uptake; format: cell-based, canine; conditions: 37° C. for two hours or room temperature for ten minutes
Source text: A fluorescent microplate assay was developed using the MDCK kidney cell line to quantify the modulation of GTTR uptake by agonists/antagonists of the TRVP1 channel (pH, Ca^2+, RTX, and iodo-RTX).

MDCK cells [1] = assay: GTTR uptake, distribution and saturability in MDCK cells (2 hours); format: cell-based, canine
Protocol: MDCK cells were treated with 1 μg/ml purified GTTR for […] in complete medium at 37° C., then washed 3× with complete medium.
as §1, §2
as §3, with “Control cells were incubated with hydrolyzed TR (at the same concentration as the TR moiety in the GTTR experiments) and then imaged live, or fixed, delipidated, washed and then imaged.” left out

[2] = test system: bullfrog saccular explants; assay: GTTR labeling of bullfrog saccular explants in vitro (specificity, Example 6); format: cell-based, Rana catesbeiana; conditions: 300 μg/ml GTTR plus 40-fold excess unconjugated GT (12 mg/ml), 30 minutes
Protocol: Gentamicin sulfate (Sigma; 50 mg/ml in K2CO3, pH 9) and succinimidyl esters of Texas Red (Molecular Probes; 2 mg/ml in dimethyl formamide) were agitated together overnight to produce a gentamicin-Texas red conjugate (GTTR). Typically, 4.4 ml of 50 mg/ml (final volume) gentamicin sulfate (GT) was mixed with 0.6 ml of 2 mg/ml Texas Red esters (TR) to produce an approximately 300:1 molar ratio of GT:GTTR. A high ratio of free gentamicin to TR esters ensures a minimum of unbound TR molecules, and a binding ratio of 1 TR molecule to 1 GT molecule (Sandoval et al. 1998). Gentamicin sulfate has three isoforms with molecular weights of […], (C2) 463.5, and (C1a) 477.6. Texas Red succinimidyl esters have a molecular weight of 817. […]
For confocal microscopy, excised saccular explants were individually pre-loaded (for 40 minutes) with 50 μM MitoTracker, 50 nM Lysotracker Green, 1 μM NBD-ceramide and 1 μM ERtracker (Molecular Probes) in Wolfe-Quimby amphibian culture media to label lysosomes, Golgi bodies and endoplasmic reticulum, respectively, prior to incubation with 300 μg/ml GT/GTTR for 2 hours. […] For immunocytochemistry of gentamicin, explants were incubated with 300 μg/ml unconjugated gentamicin for 30 minutes or 2 hours, fixed, ice-cold acetone-permeabilized, and processed for indirect fluorescence immunocytochemistry. […]

MDCK cells [3] = assay: Gentamicin immunolabeling of MDCK cells incubated with unlabeled gentamicin and La^+++; format: cell-based, canine; conditions: 0.05, 0.5 and 5 mM La^+++, unlabeled gentamicin 30 seconds
Protocol: […] Cells were rinsed twice with PBS, fixed with 4% FA, then permeabilized with ice-cold methanol for 5 minutes, and rinsed 3 times with PBS, as described previously (Steyger et al., 2003). Cells were immunoblocked in 10% goat serum in PBS for 30 minutes, and then incubated with 50 μg/mL rabbit anti-gentamicin IgG (American Quaalex, San Clemente, Calif.) for 1 hour. After washing with 1% goat serum in PBS, cells were further incubated with 20 μg/mL Alexa-488-conjugated goat-anti-rabbit IgG antisera (Molecular Probes, Eugene, Oreg.) for 45 minutes, washed, post-fixed with 4% FA for 15 minutes, and washed again. For immunocytochemical controls, the primary IgG were omitted, or adsorbed with excess gentamicin (3 mg/mL) for 30 minutes prior to addition to cells. All wells were imaged using confocal microscopy.

MDCK cells [4] = assay: GTTR uptake into MDCK cells under TRPV1 agonists/antagonists, cation channel blockers, cations and pH (30-60 seconds, 20° C., FATX fixation, confocal imaging); conditions: 0.5 or 5 mM La^+++ in HBSS pH 7.3, 30 seconds
Source text: MDCK cells were used as a model system to test regulation of GTTR uptake by conditions known to produce or modify a cation current through the TRPV1 channel. Conditions tested were varying extracellular calcium concentrations, pH, specific agonists, specific antagonists, and the non-specific cation channel blocker Ruthenium Red. In addition, we pre-mixed PIP2 with GTTR to determine whether that anionic phospholipid, known to bind gentamicin, would alter GTTR uptake. All these assays were done at room temperature (20° C.), for 30 or 60 seconds, and using doses of GTTR of 5 to 10 μg/ml, which are far below the typical therapeutic level of <300 μg/ml. Buffers used for treatment were as described for each experiment. Cells were quickly washed to replace culture medium with treatment buffer, treated as indicated, washed again after treatment, fixed immediately with 4% formaldehyde and 0.5% Triton X-100 (FATX), and washed prior to imaging.
Methods: Cells were seeded into 8-well coverglass chambers at 3000 cells/well and grown for 5 days.
Cells were washed three times with the buffer to be used in the particular experiment, treated with GTTR and experimental variable for 30 or 60 seconds at 20° C., precluding endocytosis. Following treatment, cells were rinsed three times with buffer, then fixed and delipidated with 4% formaldehyde plus 0.5% Triton X-100 (FATX) for 45 minutes. Following fixation, cells were rinsed with PBS (Invitrogen, CA) for at least 4-6 times, or until foaming in the suction pipette ceased. In contrast to previous experiments, no FBS was present in the treatment media, allowing for more rapid uptake of the antibiotic-based GTTR.
MDCK cells were washed with Hank's buffered salt solution (HBSS; Invitrogen, CA), then placed into buffers of varying potassium concentrations. HBSS was mixed with equi-osmolar KCl/HBSS to produce the required K^+ concentrations. Cells were treated with 1 μg/mL GTTR for 1 minute, then washed and fixed as described above.
Cells were washed with PBS (Invitrogen, CA), then placed into buffers containing varying concentrations of calcium, obtained by mixing HBSS with equimolar CaCl2, each at pH 7.3. Cells were treated with 5 μg/mL of GTTR for 30 seconds, then washed and fixed as above.
Cells were washed with saline, then treated with 5 μg/mL of GTTR in saline buffers of varying pH for 30 seconds, then washed and fixed as above. Sodium hydroxide and hydrochloric acid were used to alter pH. These experiments were performed in three different saline buffers: (i) PBS (no calcium), (ii) a mixture of […] for a final calcium concentration of 0.32 mM, and (iii) a mixture of three parts PBS to one part HBSS for a final calcium concentration of 0.97 mM.
Cells were washed three times with Ca^++-free saline (0.9% NaCl), then treated with 5 μg/mL GTTR and one of the following for 30 seconds: TRPV1 agonists (resiniferatoxin [RTX]; or anandamide [AND]; Alexis Biochemicals, San Diego, Calif.); or antagonists (iodo-RTX, or SB 366791; Tocris, Ellisville, Mo.). Cells were then washed in saline and fixed as above.
Cells were washed three times with Ca^++-free 0.9% NaCl, then treated with 5 μg/mL GTTR and one of the following for 30 seconds: 100 μM Ruthenium Red, 100 μM Ruthenium Red plus one of the TRPV1 agonists or antagonists described above; or lanthanum (La^+++) at 0.5 or 5 mM.

Molecule | cytoplasmic and nuclear GTTR (OK cells; OK cells, 1 μg/ml GTTR 2 hours, 37° C. or ice, unlabeled GT 0 to 4000 μg/ml) | cell morphology (OK cells; OK cells, 4 mg/mL gentamicin, 2 hours) | endosomal (vesicular) accumulation of GTTR (OK cells; live cells at 37° C., highest dose of unlabeled GT (4 mg/ml)) | GTTR uptake (quantitative microplate fluorescence) (MDCK kidney cell line) | cytoplasmic and nuclear GTTR (MDCK cells [1]; 1 μg/ml GTTR 2 hours, 37° C. or ice, unlabeled GT 0 to 4000 μg/ml) | cell morphology (MDCK cells [1]; 4 mg/mL gentamicin, 2 hours) | GTTR fluorescence in saccular explants [2] | intensity of gentamicin immunofluorescence (unconjugated gentamicin uptake) (MDCK cells [3]) | GTTR uptake (MDCK cells [4])
gentamicin [unlabeled GT] | serially reduced the amount of GTTR | flattening of cells | not visibly altered | reduced GTTR uptake | serially reduced the amount of GTTR | flattening of cells | reduced fluorescence in the sensory epithelium | – | –
[La+3] [La^+++, Lanthanum] | – | – | – | – | – | – | – | serially decreased | serially decreased
